According to PMC2826609 (Peptides, 2009):
Positions of bridges follow the written chain, without caps; N, C: chain ends. Residues, ends and D or L forms follow the SMILES beside them.

Experiments:
[1] = target: Aedes aegypti allatostatin-C receptor AeAS-CrA (Aedes aegypti, UniProt A0A411JKC3); type: cell-based
[2] = target: Aedes aegypti allatostatin-C receptor AeAS-CrB (Aedes aegypti, UniProt A0A411JKA7); type: cell-based

APFRNSEMMTARGF [AT]
FLIPR signal, peptide selectivity (AeAS-CrA) ([1]; AeAS-CrA, HEK293T/Gα16gust44 cells, results not shown): no signal was detected | FLIPR signal, peptide selectivity (AeAS-CrB) ([2]; AeAS-CrB, HEK293T/Gα16gust44 cells, results not shown): no signal was detected

CC[C@H](C)[C@H](NC(=O)[C@@H](N)CCC(N)=O)C(=O)N[C@@H](CCCNC(=N)N)C(=O)N[C@@H](Cc1ccc(O)cc1)C(=O)N[C@@H](CCCNC(=N)N)C(=O)N[C@@H](CCC(N)=O)C(=O)N[C@H]1CSSC[C@@H](C(=O)N[C@@H](Cc2ccccc2)C(=O)O)NC(=O)[C@H](CO)NC(=O)[C@H]([C@@H](C)CC)NC(=O)[C@@H]2CCCN2C(=O)[C@H](CC(N)=O)NC(=O)[C@H](Cc2ccccc2)NC(=O)[C@H](Cc2ccc(O)cc2)NC1=O [AS-C] (H-QIRYRQCYFNPISCF-OH; disulfide 7-14)
EC50 [1]: 89 ± 18.5 nM | EC50 [2]: 27.7 ± 7.2 nM
